Measurements from patent US12280044B2, “Proteolysis-targeting chimera molecule and preparation method and use thereof” (GUANGZHOU MEDICAL UNIVERSITY, priority 2022, dated 2025).

Tests used:
zebrafish [1] = test: Zebrafish experiment: survival rates under drug treatment; type: in vivo
Procedure: (§1) Cultivation conditions for zebrafish and fish eggs: a temperature: 28° C.±1° C.; light: irradiation with a fluorescent lamp; and a light/dark cycle: 14 h light/10 h dark.
(§2) 1. A specific experimental method was as follows: • (1) In the afternoon of day 1, fish mating was conducted to produce 800 to 1,000 fish eggs in a same batch. Experimental groups: an untreated group (negative control), a TYR-4 drug group A3 (10 μM), an arbutin group 1 (10 μM), and an arbutin group 2 (20 mM). • (2) In the morning of day 2, fish eggs were collected and dispensed in a 24-well plate with about 10 embryos per well, where 12 wells were set for each treatment group, that is, about 120 embryos were adopted for each treatment group. In the afternoon of day 2, water was replaced by an E3 medium including a sample in a corresponding experimental group. • (3) Every morning thereafter, the original medium was replaced by a fresh E3 medium including a sample in a corresponding experimental group. • (4) After fish came out from an egg membrane, the egg membrane was removed, the plate was washed twice with an E3 medium, and an E3 medium including a sample in a corresponding experimental group was added, where a date on which the fish came out from the egg membrane was recorded as day 0. • (5) From day 1 to day 5, after a medium was changed every morning, 15 fish were randomly selected from each experimental group and tested under a stereo microscope to measure a gray value of a back. Survival rates of zebrafish under different drug treatments were counted.

zebrafish [2] = test: Zebrafish experiment: melanin production in the back (gray value); type: in vivo
Procedure: as §1
as §2, with “Experimental groups: an untreated group (negative control), a TYR-4 drug group A3 (10 μM), an arbutin group 1 (10 μM), and an arbutin group 2 (20 mM). • (2) In the morning of day 2, fish eggs were collected and dispensed in a 24-well plate with about 10 embryos per well, where 12 wells were set for each treatment group, that is, about 120 embryos were adopted for each treatment group.” left out

TYR [3] = target: T1, TYR (Homo sapiens, UniProt P14679); test: Performance test: TYR-inhibiting efficiency; type: cell-based; design: endogenous in cells
T1 sequence (P14679 19-529): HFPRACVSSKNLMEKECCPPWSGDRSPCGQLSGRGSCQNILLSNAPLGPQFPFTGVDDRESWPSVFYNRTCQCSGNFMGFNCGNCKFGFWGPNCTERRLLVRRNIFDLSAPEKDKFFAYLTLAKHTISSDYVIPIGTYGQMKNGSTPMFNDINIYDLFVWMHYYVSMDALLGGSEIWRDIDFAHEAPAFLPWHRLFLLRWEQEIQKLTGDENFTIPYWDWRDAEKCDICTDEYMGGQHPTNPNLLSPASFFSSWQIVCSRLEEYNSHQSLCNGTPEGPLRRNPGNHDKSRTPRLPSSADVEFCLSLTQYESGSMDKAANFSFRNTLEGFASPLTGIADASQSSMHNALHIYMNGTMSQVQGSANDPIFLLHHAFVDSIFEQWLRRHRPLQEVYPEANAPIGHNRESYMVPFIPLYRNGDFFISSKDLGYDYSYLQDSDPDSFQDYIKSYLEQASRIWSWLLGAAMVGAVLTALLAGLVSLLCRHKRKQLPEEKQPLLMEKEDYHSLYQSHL
Procedure: (§3) The cytotoxicity, TYR-inhibiting efficiency, and solubility of the molecule A3 were tested.
The PROTAC molecule of the present application has excellent solubility and safety (IC50>200 μM) and a low effective concentration (1 μM to 10 μM).

zebrafish [4] = test: Zebrafish experiment: melanin precipitate after lysis on day 5; type: in vivo; settings: 10 μM
Procedure: 2. After photographing was completed on day 5, 100 zebrafish were taken from each group (only 80 to 90 live fish were left in the 10 μM arbutin group), transferred to a 1.5 mL EP tube, and washed twice with pure water, then 500 μL of 1 M Tris-HCl with a pH of 8.0 was added, ultrasonic lysis was conducted on ice (40% power, on 3 s/off 2 s per cycle, and ultrasonic time: 10 min), and a resulting lysis system was centrifuged at 12,000 rpm and 4° C. for 15 min to obtain a melanin precipitate.

TYR [5] = target: T1, TYR; test: TYR protein level by western blot in human melanoma cell line A375; type: cell-based; design: endogenous in cells; host or cells: MNT-1 human melanoma cells; settings: A375 cells, 24 h, 0.001-10 μmol/L, WB
Procedure: (§4) The human melanoma cell line A375 was treated for 24 h with the molecule A3 at a concentration gradient, and then a protein sample was collected and tested by western blot (WB) to determine a protein level of TYR. In the concentration gradient, final concentrations of the molecule A3 were 0.001 μmol/L, 0.01 μmol/L, 0.1 μmol/L, 1 μmol/L, and 10 μmol/L, respectively.

TYR [6] = target: T1, TYR; test: Degradation pathway detection with proteasome inhibitor MG132 in MNT-1 cells (WB of TYR); type: cell-based; design: endogenous in cells; host or cells: MNT-1 human melanoma cells; settings: 1 or 10 μM A3 + 10 μM MG132, 24 h
Excerpt: A molecular mechanism of the PROTAC molecule to degrade a target protein is as follows: molecular elements at two ends of the PROTAC molecule bind to the target protein and an ubiquitin ligase, respectively, such that the target protein is ubiquitinated and thus degraded by a proteasome. A proteasome inhibitor MG132 was used to determine whether an impact of the PROTAC molecule on a protein level of TYR was based on a proteasome degradation pathway.
A specific treatment method included the following steps: • (1) MNT-1 cells were plated on a 6-well plate and allowed to grow adherently until a cell confluency was 80%. • (2) The cells were treated according to the following groups: • (a) a normal control group; (b) a 1 μM A3 treatment group; (c) a 10 μM A3 treatment group; (d) a 10 μM MG132 treatment group; (e) a 1 μM A3+10 μM MG132 treatment group; and (f) a 10 μM A3+10 μM MG132 treatment group. • (3) 24 h after a treatment, cells in each group were collected and lysed, and a resulting total protein lysate was collected and tested by WB to determine an expression level of TYR.

[7] = Performance test: cytotoxicity; type: cell-based
Procedure: as §3

TYR [8] = target: T1, TYR; test: TYR protein level by western blot in human melanoma cell line MNT-1; type: cell-based; design: endogenous in cells; host or cells: MNT-1 human melanoma cells; settings: MNT-1 cells, 24 h, 0.001-10 μmol/L, WB
Procedure: as §4, with “MNT-1” for “A375”, “WB” for “western blot (WB)”

[9] = Performance test: solubility; type: physicochemical; settings: organic solvent or mixture; in DMSO
Procedure: as §3

SMILES	toxic and side effects, death (zebrafish [1]; effective concentration (10 μM))	inhibitory effect on melanin production in zebrafish (gray value of back) (zebrafish [2]; 10 μM, day 1 to day 5)	effect on melanin production compared with arbutin (zebrafish [2]; same concentration (10 μM))	EC50 (TYR [3]) [µM]	melanin precipitate amount versus untreated group (zebrafish [4])	inhibitory effect on TYR protein level (TYR [5])	degradation effect on TYR after MG132 is added (TYR [6])	IC50 [7] [µM]	inhibitory effect on TYR protein level (TYR [8])	solubility [9] [mg/mL]	day on which death occurs (zebrafish [1]; 10 μM) [days]	live fish left (zebrafish [1]; 10 μM, day 5)	survival rate (zebrafish [1]; 10 μM, day 5)	day on which death occurs (zebrafish [1]; 20 mM) [days]	survival (zebrafish [1]; 20 mM, day 5)
O=C1CCC(N2Cc3c(NC(=O)CCCCCCNC(=O)c4cc[nH]c(=S)c4)cccc3C2=O)C(=O)N1 (stereo not shown) [A3]	does not have any toxic and side effects and does not cause death	significant inhibitory effect on melanin production in zebrafish	better effect than common whitening agents such as arbutin	< 10	significantly smaller than the melanin precipitate amount in the untreated group	has an inhibitory effect on TYR in the cell line A375	significantly inhibited after MG132 is added	> 200	has a significant inhibitory effect on TYR in the cell line MNT-1	> 523	–	–	–	–	–
OC[C@H]1O[C@@H](Oc2ccc(O)cc2)[C@H](O)[C@@H](O)[C@@H]1O [arbutin]	–	–	–	–	significantly smaller than the melanin precipitate amount in the untreated group	–	–	–	–	–	4	80 to 90	about 80%	3	basically dies
